Reference: ChEMBL document CHEMBL3044606, “Binding of sodium houttuyfonate analogues to bovine serum albumin revealed by fluoresence quenching study” (Med Chem Res, 2010)

Columns and labels:
Type in all cases: ADME
Settings in all cases: cattle, isolated protein; call rule not given here
Albumin [1] = target: T1, Albumin (Bos taurus, UniProt P02769); test: Binding affinity to Bos taurus (bovine) serum albumin after 5 min at 25 degC by Stern-Volmer plot analysis
Albumin [2] = target: T1, Albumin; test: Binding affinity to Bos taurus (bovine) serum albumin assessed as decrease in fluorescence at 1:25 protein:compound ratio after 5 min by fluorimetric analysis
Albumin [3] = target: T1, Albumin; test: Binding affinity to Bos taurus (bovine) serum albumin assessed as shift in emission wavelength at 25 to 200 uM after 5 min by fluorimetric analysis
Albumin [4] = target: T1, Albumin; test: Binding affinity to Bos taurus (bovine) serum albumin after 5 min at 37 degC by Stern-Volmer plot analysis
Albumin [5] = target: T1, Albumin; test: Binding affinity to Bos taurus (bovine) serum albumin assessed as decrease in decrease in absorption at 50 uM after 5 min by UV-Vis spectrophotometric analysis; set-up: scale not given: the % may be the effect or the level left
Albumin [6] = target: T1, Albumin; test: Binding affinity to Bos taurus (bovine) serum albumin assessed as decrease in fluorescence after 5 min by fluorimetric analysis

T1 sequence (P02769 whole entry): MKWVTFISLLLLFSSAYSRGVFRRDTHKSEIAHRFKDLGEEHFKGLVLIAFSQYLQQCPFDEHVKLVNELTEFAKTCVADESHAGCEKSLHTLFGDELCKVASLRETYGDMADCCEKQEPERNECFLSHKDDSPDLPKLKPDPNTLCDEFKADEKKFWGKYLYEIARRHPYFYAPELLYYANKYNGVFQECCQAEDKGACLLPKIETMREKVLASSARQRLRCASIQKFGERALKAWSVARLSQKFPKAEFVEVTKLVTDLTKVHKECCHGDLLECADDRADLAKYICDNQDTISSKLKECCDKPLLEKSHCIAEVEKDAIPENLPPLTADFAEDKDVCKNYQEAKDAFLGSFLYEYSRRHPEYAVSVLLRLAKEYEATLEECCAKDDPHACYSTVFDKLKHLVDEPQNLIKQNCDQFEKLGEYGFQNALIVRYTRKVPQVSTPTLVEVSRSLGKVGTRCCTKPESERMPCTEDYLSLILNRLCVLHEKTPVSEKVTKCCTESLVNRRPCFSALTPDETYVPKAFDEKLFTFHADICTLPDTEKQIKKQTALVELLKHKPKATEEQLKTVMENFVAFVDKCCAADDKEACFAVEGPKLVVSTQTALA

SMILES	K (Albumin [1])	KSV (Albumin [1])	Kq (Albumin [1])	Activity (Albumin [2])	Activity (Albumin [3])	KSV (Albumin [4])	Kq (Albumin [4])	Activity (Albumin [5])	Activity (Albumin [6])
CCCCCC(=O)CC(O)S(=O)(=O)[O-].[Na+] (stereo not given) [HEXANOYL ACETAL SODIUM SULFITE]	6.7081 ×10⁶ /M	36.7 ×10³ /M	3.67 ×10¹² /M/s	Not Active	Not Active	73.5 ×10³ /M	7.35 ×10¹² /M/s	50%	Dose-dependent effect
CCCCCCCC(=O)CC(O)S(=O)(=O)[O-].[Na+] (stereo not given) [OCTANOYL ACETAL SODIUM SULFITE]	691.83 ×10⁶ /M	381.3 ×10³ /M	38.13 ×10¹² /M/s	Active	Not Active	529.2 ×10³ /M	52.92 ×10¹² /M/s	50%	Dose-dependent effect
CCCCCCCCCCCCCC(=O)CC(O)S(=O)(=O)[O-].[Na+] (stereo not given) [TETRADECANOYL ACETAL SODIUM SULFITE]	1360.5 ×10⁶ /M	121.7 ×10³ /M	12.17 ×10¹² /M/s	Active	Not Active	93.2 ×10³ /M	9.32 ×10¹² /M/s	90%	Dose-dependent effect

Continued, values first:

K (Albumin [1])	KSV (Albumin [1])	Kq (Albumin [1])	Activity (Albumin [2])	Activity (Albumin [3])	KSV (Albumin [4])	Kq (Albumin [4])	Activity (Albumin [5])	Activity (Albumin [6])	SMILES
0.197 ×10⁶ /M	147.9 ×10³ /M	14.79 ×10¹² /M/s	Active	Not Active	72 ×10³ /M	7.2 ×10¹² /M/s	90%	Dose-dependent effect	CCCCCCCCCCCC(=O)CC(O)S(=O)(=O)[O-].[Na+] (stereo not given) [DODECANOYL ACETAL SODIUM SULFITE]
84.606 ×10⁶ /M	217.3 ×10³ /M	21.73 ×10¹² /M/s	Active	Not Active	113 ×10³ /M	11.3 ×10¹² /M/s	90%	Dose-dependent effect	CCCCCCCCCC(=O)CC(O)S(=O)(=O)[O-].[Na+] (stereo not given) [SODIUM HOUTTUYFONATE]
